Test results reported in the NIST ThermoML archive (doi:10.1021/je500153g).

Assay: xn = mol fraction of the nth substance listed
Settings: 101 kPa, Liquid; for viscosity: Concentric cylinders viscometry; for mass density: Vibrating tube method

O=S1(=O)CCCC1 [sulfolane] + OCCOCCO
Settings	mass density, 303.15 K [kg/m3]	mass density, 313.15 K [kg/m3]	mass density, 323.15 K [kg/m3]	mass density, 333.15 K [kg/m3]	mass density, 343.15 K [kg/m3]	viscosity, 303.15 K [mPa·s]	viscosity, 313.15 K [mPa·s]	viscosity, 323.15 K [mPa·s]	viscosity, 333.15 K [mPa·s]	viscosity, 343.15 K [mPa·s]
x1 = 0.097	1125	1117.6	1110.2	1102.7	1094.9	19.1	12.9	9.13	6.74	5.15
x1 = 0.198	1140	1132.5	1124.8	1117	1109.1	16.3	11.2	8.04	6.01	4.65
x1 = 0.319	1158.2	1150.3	1142.3	1134.2	1126.1	13.8	9.62	7.03	5.35	4.19
x1 = 0.414	1172.2	1164.2	1156.1	1147.8	1139.6	12.2	8.7	6.46	4.97	3.94
x1 = 0.499	1185.2	1176.9	1168.6	1160.3	1151.9	11.2	8.07	6.07	4.72	3.78
x1 = 0.614	1202.9	1194.5	1186	1177.5	1169	10.2	7.49	5.72	4.5	3.64
x1 = 0.698	1215.6	1207.1	1198.5	1190	1181.3	9.72	7.25	5.61	4.47	3.64
x1 = 0.789	1229.7	1221.1	1212.5	1203.8	1195.1	9.35	7.08	5.54	4.46	3.66
x1 = 0.887	1245	1236.3	1227.5	1218.8	1210.1	9.39	7.23	5.72	4.64	3.84
x1 = 1	1262.9	1254.1	1245.2	1236.6	1228.1	10.4	8.07	6.45	5.22	4.32

O=S1(=O)CCCC1 [sulfolane] + CC(C)O
Settings	mass density, 303.15 K [kg/m3]	mass density, 313.15 K [kg/m3]	mass density, 323.15 K [kg/m3]	mass density, 333.15 K [kg/m3]	mass density, 343.15 K [kg/m3]	viscosity, 303.15 K [mPa·s]	viscosity, 313.15 K [mPa·s]	viscosity, 323.15 K [mPa·s]	viscosity, 333.15 K [mPa·s]	viscosity, 343.15 K [mPa·s]
x1 = 0.075	823.6	814.6	805.3	795.5	785.2	1.62	1.27	1.01	0.81	0.66
x1 = 0.164	875.9	866.9	857.5	847.9	837.9	1.69	1.34	1.08	0.89	0.74
x1 = 0.25	924	914.8	905.4	896	886	1.85	1.48	1.2	1	0.84
x1 = 0.353	978.7	969.6	960.4	950.7	941.1	2.14	1.71	1.41	1.18	0.99
x1 = 0.437	1021.3	1012.1	1002.9	993.8	984.3	2.43	1.96	1.62	1.36	1.14
x1 = 0.536	1069.3	1060.2	1050.9	1041.6	1032.1	2.91	2.35	1.95	1.64	1.4
x1 = 0.656	1124.3	1115.3	1106.2	1097	1087.7	3.75	3.03	2.5	2.11	1.8
x1 = 0.768	1172.1	1163.1	1154.1	1145.1	1135.9	4.97	3.99	3.27	2.73	2.32
x1 = 0.88	1219.3	1210.4	1201.6	1192.6	1183.7	6.92	5.48	4.45	3.68	3.1
x1 = 1	1262.9	1254.1	1245.2	1236.6	1228.1	10.4	8.07	6.45	5.22	4.32
